Reference: patent EP4570802A1, “SALT TYPE AND CRYSTAL FORM OF BENZAZEPINE FUSED RING COMPOUND AND USE THEREOF” (SHANGHAI JEYOU PHARMACEUTICAL CO., LTD., priority 2022, dated 2024)
Values after ≈ are worked out from the molar mass of the structure shown. Where a name gives a salt, the structure may show the parent alone. Read-outs that look alike come from different tables or passages of the source.

Tests used:
Assay type in all cases: physicochemical
[1] = Solubility test in biological media (dynamic solubility in FaSSIF, FeSSIF, FaSSGF; pH of the 24-hour supernatant; XRPD of remaining solid); settings: for Final pH: 24-hour supernatant; for Solubility (mg/mL) 0.5 h: 30 min; for Solubility (mg/mL) 2h: 120 min; for Solubility (mg/mL) 24 h: 1440 min; for XRPD for remaining solid: remaining solid after 24 hours; for solubility at 0.5 h: read-out: Solubility (mg/mL) 0.5 h; for solubility at 24 h: read-out: Solubility (mg/mL) 24 h; for solubility at 2 h: read-out: Solubility (mg/mL) 2h
Experimental: Samples of different crystal forms were added to biological media and shaken at a constant temperature of 37°C for 24 hours, followed by sampling at 0.5 hours, 2 hours, and 24 hours, respectively, and the sampled solution was filtered using a 0.22 µm hydrophilic filter membrane. Some of the samples with higher concentrations were appropriately diluted with a diluent, and the signal peak area of the solution was measured by HPLC. Finally, the concentration of the compound in the solution was calculated based on the peak area, the HPLC standard curve of the starting material, and the dilution factor. In addition, the 24-hour supernatant was tested for pH, and the remaining solid was subjected to XRPD testing.

[2] = Stability study (solid state, XRPD characterization after 7 days and 15 days); settings: for Results after 7 days: XRPD characterization after 7 days; for Results after 15 days: XRPD characterization after 15 days
Experimental: Approximately 20 mg of sample was weighed into a weighing bottle and exposed to high temperature (60°C), high humidity (25°C/92.5% RH), light (25°C/4500 Lux), and accelerated (40°C/75% RH) conditions, followed by sampling for XRPD characterization after 7 days and 15 days.
Samples were taken for XRPD characterization after 7 days and 15 days. 62 to 65. […]

[3] = Dynamic vapor sorption analysis (DVS)
Experimental: Dynamic vapor sorption analysis was performed using DVS Intrinsic (SMS, UK). The test was performed in gradient mode with a humidity change of 50%-95%-0%-50%, and 10% humidity change per gradient in the range of 0% to 90%. The gradient endpoint was determined by dm/dt, and was defined as when dm/dt was less than 0.002% and maintained for 10 minutes. After the test was completed, the sample was analyzed by XRPD to confirm whether the solid morphology had changed.

[4] = FaSSGF, listed as Crystal form N
[5] = FaSSGF, pH 1.6, 37°C, listed as Crystal form N
[6] = FaSSIF, listed as Crystal form N
[7] = FaSSIF, pH 6.5, 37°C, listed as Crystal form N
[8] = FeSSIF, listed as Crystal form N
[9] = FeSSIF, pH 5.0-5.1, 37°C, listed as Crystal form N
[10] = Water, listed as Crystal form N
[11] = FaSSGF, listed as Crystal form C of fumarate
[12] = FaSSIF, listed as Crystal form C of fumarate
[13] = FeSSIF, listed as Crystal form C of fumarate
[14] = FaSSGF, listed as Crystal form S
[15] = FaSSGF, pH 1.6, 37°C, listed as Crystal form S
[16] = FaSSIF, listed as Crystal form S
[17] = FaSSIF, pH 6.5, 37°C, listed as Crystal form S
[18] = FeSSIF, listed as Crystal form S
[19] = FeSSIF, pH 5.0-5.1, 37°C, listed as Crystal form S
[20] = Water, listed as Crystal form S
[21] = FaSSGF, listed as Crystal form A of maleate
[22] = FaSSGF, pH 1.6, 37°C, listed as Crystal form A of maleate
[23] = FaSSIF, listed as Crystal form A of maleate
[24] = FaSSIF, pH 6.5, 37°C, listed as Crystal form A of maleate
[25] = FeSSIF, listed as Crystal form A of maleate
[26] = FeSSIF, pH 5.0-5.1, 37°C, listed as Crystal form A of maleate

For O=C(Nc1ccc(C(=O)N2CC[C@@H]3CCN[C@H]3c3cc(Cl)ccc32)cn1)c1ccccc1C(F)(F)F [crystal form N], the “Final pH” value [1, 4] was 2.0, the “Solubility (mg/mL) 0.5 h” value [1, 5] was greater than 7.61 mg/mL and the “Solubility (mg/mL) 2h” value [1, 5] was greater than 7.89 mg/mL. For the same molecule, the “Solubility (mg/mL) 24 h” value [1, 5] was greater than 7.98 mg/mL, the “XRPD for remaining solid” value [1, 4] was “No solid” and the “Final pH” value [1, 6] was 6.5. The “Solubility (mg/mL) 0.5 h” value [1, 7] was 0.06 mg/mL (≈ 117 µM), the “Solubility (mg/mL) 2h” value [1, 7] was 0.07 mg/mL (≈ 136 µM) and the “Solubility (mg/mL) 24 h” value [1, 7] was 0.08 mg/mL (≈ 155 µM). For the same molecule, the “XRPD for remaining solid” value [1, 6] was “Crystal form N”, the “Final pH” value [1, 8] was 5.1 and the “Solubility (mg/mL) 0.5 h” value [1, 9] was 0.80 mg/mL (≈ 1550 µM). The “Solubility (mg/mL) 2h” value [1, 9] was 0.97 mg/mL (≈ 1880 µM), the “Solubility (mg/mL) 24 h” value [1, 9] was 0.94 mg/mL (≈ 1830 µM) and the “XRPD for remaining solid” value [1, 8] was “Crystal form N”. The “Final pH” value [1, 10] was 7.5, the “Solubility (mg/mL) 2h” value ([1]; Water, 37°C, listed as Crystal form N) was 0.011 mg/mL (≈ 21.4 µM) and the “XRPD for remaining solid” value [1, 10] was “Crystal form N”. For the same molecule, the solubility at 0.5 h ([1]; water, 37°C) was 0.004 mg/mL (≈ 7.77 µM), the solubility at 24 h ([1]; water, 37°C) was 0.004 mg/mL (≈ 7.77 µM) and the “Results after 7 days” value ([2]; Accelerated, 40°C/75% RH) was “No change”. For the same molecule, the “Results after 15 days” value ([2]; Accelerated, 40°C/75% RH) was “No change”, the “Results after 7 days” value ([2]; High humidity, 25°C/92.5% RH) was “No change” and the “Results after 15 days” value ([2]; High humidity, 25°C/92.5% RH) was “No change”. For the same molecule, the “Results after 7 days” value ([2]; Light, 25°C/4500 Lux) was “No change” and the “Results after 15 days” value ([2]; Light, 25°C/4500 Lux) was “No change”.
For O=C(Nc1ccc(C(=O)N2CC[C@@H]3CCN[C@H]3c3cc(Cl)ccc32)cn1)c1ccccc1C(F)(F)F [crystal form C of fumarate], the “Final pH” value [1, 11] was 1.7, the solubility at 0.5 h ([1]; FaSSGF, pH 1.6, 37°C) was 0.65 mg/mL and the solubility at 2 h ([1]; FaSSGF, pH 1.6, 37°C) was 0.7 mg/mL. For the same molecule, the solubility at 24 h ([1]; FaSSGF, pH 1.6, 37°C) was 0.71 mg/mL, the “XRPD for remaining solid” value [1, 11] was “Obvious change” and the “Final pH” value [1, 12] was 6.1. For the same molecule, the solubility at 0.5 h ([1]; FaSSIF, pH 6.5, 37°C) was 0.38 mg/mL, the solubility at 2 h ([1]; FaSSIF, pH 6.5, 37°C) was 0.35 mg/mL and the solubility at 24 h ([1]; FaSSIF, pH 6.5, 37°C) was 0.28 mg/mL. The “XRPD for remaining solid” value [1, 12] was “Crystal form C of fumarate + new peak”, the “Final pH” value [1, 13] was 5.0 and the solubility at 0.5 h ([1]; FeSSIF, pH 5.0-5.1, 37°C) was 0.66 mg/mL. The solubility at 2 h ([1]; FeSSIF, pH 5.0-5.1, 37°C) was 0.74 mg/mL, the solubility at 24 h ([1]; FeSSIF, pH 5.0-5.1, 37°C) was 0.68 mg/mL and the “XRPD for remaining solid” value [1, 13] was “Crystal form C of fumarate + new peak”.
In the case of O=C(Nc1ccc(C(=O)N2CC[C@@H]3CCN[C@H]3c3cc(Cl)ccc32)cn1)c1ccccc1C(F)(F)F [crystal form S], the “Final pH” value [1, 14] is reported as 2.0, the “Solubility (mg/mL) 0.5 h” value [1, 15] is reported as greater than 7.19 mg/mL and the “Solubility (mg/mL) 2h” value [1, 15] is reported as greater than 7.35 mg/mL. The “Solubility (mg/mL) 24 h” value [1, 15] was 2.15 mg/mL (≈ 4180 µM), the “XRPD for remaining solid” value [1, 14] was “Amorphous*” and the “Final pH” value [1, 16] was 6.5. For the same molecule, the “Solubility (mg/mL) 0.5 h” value [1, 17] was 0.03 mg/mL (≈ 58.3 µM), the “Solubility (mg/mL) 2h” value [1, 17] was 0.04 mg/mL (≈ 77.7 µM) and the “Solubility (mg/mL) 24 h” value [1, 17] was 0.04 mg/mL (≈ 77.7 µM). For the same molecule, the “XRPD for remaining solid” value [1, 16] was “Crystal form S”, the “Final pH” value [1, 18] was 5.1 and the “Solubility (mg/mL) 0.5 h” value [1, 19] was 0.40 mg/mL (≈ 777 µM). For the same molecule, the “Solubility (mg/mL) 2h” value [1, 19] was 0.44 mg/mL (≈ 854 µM), the “Solubility (mg/mL) 24 h” value [1, 19] was 0.43 mg/mL (≈ 835 µM) and the “XRPD for remaining solid” value [1, 18] was “Crystal form S”. For the same molecule, the “Final pH” value [1, 20] was 7.4, the “Solubility (mg/mL) 2h” value ([1]; Water, 37°C, listed as Crystal form S) was 0.001 mg/mL (≈ 1.94 µM) and the “XRPD for remaining solid” value [1, 20] was “Crystal form S”. The “Results after 7 days” value ([2]; High temperature, 60°C) was “No change” and the “Results after 15 days” value ([2]; High temperature, 60°C) was “No change”.
With O=C(Nc1ccc(C(=O)N2CC[C@@H]3CCN[C@H]3c3cc(Cl)ccc32)cn1)c1ccccc1C(F)(F)F [crystal form A of maleate] the “Final pH” value [1, 21] was 1.7, the “Solubility (mg/mL) 0.5 h” value [1, 22] was 1.44 mg/mL and the “Solubility (mg/mL) 2h” value [1, 22] was 1.43 mg/mL. For the same molecule, the “Solubility (mg/mL) 24 h” value [1, 22] was 1.02 mg/mL, the “XRPD for remaining solid” value [1, 21] was “Crystal form A of maleate + new peak” and the “Final pH” value [1, 23] was 6.1. For the same molecule, the “Solubility (mg/mL) 0.5 h” value [1, 24] was 0.66 mg/mL, the “Solubility (mg/mL) 2h” value [1, 24] was 0.69 mg/mL and the “Solubility (mg/mL) 24 h” value [1, 24] was 0.57 mg/mL. The “XRPD for remaining solid” value [1, 23] was “Obvious change”, the “Final pH” value [1, 25] was 5.0 and the “Solubility (mg/mL) 0.5 h” value [1, 26] was 1.08 mg/mL. The “Solubility (mg/mL) 2h” value [1, 26] was 1.28 mg/mL, the “Solubility (mg/mL) 24 h” value [1, 26] was 0.31 mg/mL and the “XRPD for remaining solid” value [1, 25] was “Obvious change”. The “stability (crystal transformation by XRPD)” value ([2]; high temperature (60°C), high humidity (25°C/92.5% RH), light (25°C/4500 Lux) and accelerated (40°C/75% RH) conditions, 15 days) was “stable”, the weight loss ([3]; DVS, at 0% RH) was 0.24% and the weight gain ([3]; DVS, at 80% RH) was 0.09%. The weight gain ([3]; DVS, at 95% RH) was 0.23%, the hygroscopicity ([3]; conclusion from DVS) was “almost no hygroscopicity” and the “XRPD after DVS testing” value ([3]; solid form after DVS testing) was “no morphological change”.
